Test system: 323965-272-R-J2-PDC complex spheroid viability
Assay: Anticancer human tumor 323965-272-R-J2-PDC patient-derived pancreatic carcinoma cell line growth inhibition [CLK]
Conditions: for IC50: curve of first compound; for viability, T/C: stronger effect = lower value
In short: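 Multi-cell-type spheroids combined patient-derived tumor cells with HUVEC endothelial cells and human mesenchymal stem cells. Paired agents were dosed in half-log steps down from about clinical Cmax, or from 10 microM where Cmax was unknown.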

[1] = second compound 0.0316 µM, first compound 0.00316 µM
[2] = second compound 0.0316 µM, first compound 0.01 µM
[3] = second compound 0.0316 µM, first compound 0.0316 µM
[4] = second compound 0.0316 µM, first compound 0.1 µM
[5] = second compound 0.0316 µM, first compound 0.316 µM
[6] = second compound 0.0316 µM, first compound 1 µM
[7] = second compound 0.1 µM, first compound 0.00316 µM
[8] = second compound 0.1 µM, first compound 0.01 µM
[9] = second compound 0.1 µM, first compound 0.0316 µM
[10] = second compound 0.1 µM, first compound 0.1 µM
[11] = second compound 0.1 µM, first compound 0.316 µM
[12] = second compound 0.1 µM, first compound 1 µM
[13] = second compound 0.316 µM, first compound 0.00316 µM
[14] = second compound 0.316 µM, first compound 0.01 µM
[15] = second compound 0.316 µM, first compound 0.0316 µM
[16] = second compound 0.316 µM, first compound 0.1 µM
[17] = second compound 0.316 µM, first compound 0.316 µM
[18] = second compound 0.316 µM, first compound 1 µM
[19] = second compound 1 µM, first compound 0.00316 µM
[20] = second compound 1 µM, first compound 0.01 µM
[21] = second compound 1 µM, first compound 0.0316 µM
[22] = second compound 1 µM, first compound 0.1 µM
[23] = second compound 1 µM, first compound 0.316 µM
[24] = second compound 1 µM, first compound 1 µM
[25] = second compound 3.16 µM, first compound 0.00316 µM
[26] = second compound 3.16 µM, first compound 0.01 µM
[27] = second compound 3.16 µM, first compound 0.0316 µM
[28] = second compound 3.16 µM, first compound 0.1 µM
[29] = second compound 3.16 µM, first compound 0.316 µM
[30] = second compound 3.16 µM, first compound 1 µM
[31] = second compound 10 µM, first compound 0.00316 µM
[32] = second compound 10 µM, first compound 0.01 µM
[33] = second compound 10 µM, first compound 0.0316 µM
[34] = second compound 10 µM, first compound 0.1 µM
[35] = second compound 10 µM, first compound 0.316 µM
[36] = second compound 10 µM, first compound 1 µM
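Note: spheroids exposed to agents for seven days before readout.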
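Throughout, for viability, T/C: percent of DMSO vehicle control wells so 100% = untreated growth.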

CCN1CCN(Cc2ccc(Nc3ncc(F)c(-c4cc(F)c5nc(C)n(C(C)C)c5c4)n3)nc2)CC1 + CN1CCN(c2cc(C(=O)Nc3cc4cc(-c5cnn(C)c5)ccc4cn3)ccn2)CC1
IC50 (second compound 0.0316 µM): > 1000 nM | IC50 (second compound 0.1 µM): > 1000 nM | IC50 (second compound 0.316 µM): < 3.16 nM | IC50 (second compound 1 µM): < 3.16 nM | IC50 (second compound 3.16 µM): < 3.16 nM | IC50 (second compound 10 µM): < 3.16 nM | viability, T/C [1]: 93.6% | viability, T/C [2]: 96.1% | viability, T/C [3]: 78.2% | viability, T/C [4]: 73.1% | viability, T/C [5]: 65.2% | viability, T/C [6]: 76.1% | viability, T/C [7]: 68.6% | viability, T/C [8]: 67.8% | viability, T/C [9]: 62.6% | viability, T/C [10]: 60.2% | viability, T/C [11]: 59.7% | viability, T/C [12]: 58.9% | viability, T/C [13]: 23.3% | viability, T/C [14]: 24.5% | viability, T/C [15]: 25.5% | viability, T/C [16]: 27.9% | viability, T/C [17]: 29.6% | viability, T/C [18]: 39.9% | viability, T/C [19]: 3.56% | viability, T/C [20]: 3.73% | viability, T/C [21]: 3.71% | viability, T/C [22]: 3.79% | viability, T/C [23]: 7.89% | viability, T/C [24]: 9.9% | viability, T/C [25]: 3.02% | viability, T/C [26]: 5.31% | viability, T/C [27]: 3.88% | viability, T/C [28]: 3.9% | viability, T/C [29]: 4.69% | viability, T/C [30]: 6.79% | viability, T/C [31]: 3.83% | viability, T/C [32]: 4.01% | viability, T/C [33]: 4.24% | viability, T/C [34]: 3.37% | viability, T/C [35]: 4.88% | viability, T/C [36]: 5.11%

COc1c(OCCCN2CCOCC2)ccc2c3n(c(=NC(=O)c4cnc(N)nc4)nc12)CCN3 + CN1CCN(c2cc(C(=O)Nc3cc4cc(-c5cnn(C)c5)ccc4cn3)ccn2)CC1
IC50 (second compound 0.0316 µM): 40.1 nM | IC50 (second compound 0.1 µM): 18.7 nM | IC50 (second compound 0.316 µM): < 3.16 nM | IC50 (second compound 1 µM): < 3.16 nM | IC50 (second compound 3.16 µM): < 3.16 nM | IC50 (second compound 10 µM): < 3.16 nM | viability, T/C [1]: 85.5% | viability, T/C [2]: 77.1% | viability, T/C [3]: 50% | viability, T/C [4]: 39.6% | viability, T/C [5]: 28.8% | viability, T/C [6]: 25.9% | viability, T/C [7]: 64.5% | viability, T/C [8]: 63% | viability, T/C [9]: 39.3% | viability, T/C [10]: 26% | viability, T/C [11]: 21.4% | viability, T/C [12]: 19.3% | viability, T/C [13]: 23.6% | viability, T/C [14]: 21.5% | viability, T/C [15]: 15.9% | viability, T/C [16]: 15.7% | viability, T/C [17]: 12.2% | viability, T/C [18]: 11.9% | viability, T/C [19]: 3.49% | viability, T/C [20]: 2.87% | viability, T/C [21]: 2.38% | viability, T/C [22]: 2.22% | viability, T/C [23]: 1.51% | viability, T/C [24]: 0.92% | viability, T/C [25]: 3.25% | viability, T/C [26]: 4.48% | viability, T/C [27]: 3.03% | viability, T/C [28]: 1.39% | viability, T/C [29]: 1.26% | viability, T/C [30]: 0.84% | viability, T/C [31]: 4.13% | viability, T/C [32]: 3.87% | viability, T/C [33]: 3.7% | viability, T/C [34]: 2.13% | viability, T/C [35]: 1.69% | viability, T/C [36]: 2.03%
